These substances were tested on human genes (assay: Editing efficiency of tested crRNAs / guide nucleic acids (Tables 7-10) detected in human cells). Conditions: Target Gene LAG3; tested crRNAs targeting human genes.
Assay type: cell-based

For “gLAG3_6: spacer targeting LAG3, SEQ ID NO 153, GGGTGCATACCTGTCTGGCTG (chemistry not given here)”, the “% Indel” value was 52.4%.

Same assay, conditions: Target Gene PTPN6; tested crRNAs targeting human genes

First: gPTPN6_6: spacer targeting PTPN6, SEQ ID NO 249, TATGACCTGTATGGAGGGGAG (chemistry not given here)
Second: gPTPN6_9 (guide CCTGACGCTGCCTTCTCTAGG; chemistry not given here)
The “% Indel” value of the first is higher: 83.4% for the first, 0.8% for the second.

In the case of “gPTPN6_8 (guide AGGTGGATGATGGTGCCGTCG; chemistry not given here)”, the “% Indel” value is reported as 3.5%.

Same assay, conditions: Target Gene TIGIT; tested crRNAs targeting human genes

First: gTIGIT_11 (guide GGGTGGCACATCTCCCCATCC; chemistry not given here)
Second: gTIGIT_5 (guide TCTGCAGAAATGTTCCCCGTT; chemistry not given here)
The “% Indel” value of the first is higher: 9.7% for the first, 1.1% for the second.

Compared with “gTIGIT_30 (guide TGTAACTCAGGACATTGAAGT; chemistry not given here)”, “gTIGIT_17 (guide CTCCAGCAGGAATACCTGAGC; chemistry not given here)” is higher in “% Indel” value: 0.5% for the first, 0.8% for the second.

Compared with “gTIGIT_28 (guide CTGGGGGTGAGGGAGCACTGG; chemistry not given here)”, “gTIGIT_7 (guide TGCAGAGAAAGGTGGCTCTAT; chemistry not given here)” is higher in “% Indel” value: 0.5% for the first, 6% for the second.

Compared with “gTIGIT_12 (guide AAGGATGGGGAGATGTGCCAC; chemistry not given here)”, “gTIGIT_3 (guide GTCCTCTTCCCTAGGAATGAT; chemistry not given here)” is higher in “% Indel” value: 0.4% for the first, 1.3% for the second.

Going from “gTIGIT_24 (guide TTTTTAGAAGAAAGCCCTCAG; chemistry not given here)” to “gTIGIT_18 (guide GTCCTCCCTCTAGTGGCTGAG; chemistry not given here)”, the “% Indel” value rises from 0.4% to 72.4%.

“gTIGIT_26 (guide CACAGAATGGATTCTGAGGGC; chemistry not given here)” and “gTIGIT_29 (guide TGCCTGGACACAGCTTCCTGG; chemistry not given here)” are the same in “% Indel” value: 0.3% for the first, 0.3% for the second.

First: gTIGIT_25 (guide TAGAAGAAAGCCCTCAGAATC; chemistry not given here)
Second: gTIGIT_20 (guide TAGTCAACGCGACCACCACGA; chemistry not given here)
The “% Indel” value of the first is higher: 1.2% for the first, 0.1% for the second.

Going from “gTIGIT_21 (guide CTAGTCAACGCGACCACCACG; chemistry not given here)” to “gTIGIT_27 (guide CTCCTGAGGTCACCTTCCACA; chemistry not given here)”, the “% Indel” value rises from 0.1% to 1.6%.

First: gTIGIT_22 (guide TAGTTTGTTTGTTTTTAGAAG; chemistry not given here)
Second: gTIGIT_19 (guide GAGCCATGGCCGCGACGCTGG; chemistry not given here)
The “% Indel” value of the first is lower: 0.6% for the first, 0.9% for the second.

First: gTIGIT_2: spacer targeting TIGIT, SEQ ID NO 302, AGGCCTTACCTGAGGCGAGGG (chemistry not given here)
Second: gTIGIT_6 (guide CTCTGCAGAAATGTTCCCCGT; chemistry not given here)
The “% Indel” value of the first is higher: 81.7% for the first, 0.1% for the second.

Compared with “gTIGIT_10 (guide TAATGCTGACTTGGGGTGGCA; chemistry not given here)”, “gTIGIT_15 (guide TAGGACCTCCAGGAAGATTCT; chemistry not given here)” is lower in “% Indel” value: 1.6% for the first, 0.4% for the second.

Going from “gTIGIT_14 (guide TGCATCTATCACACCTACCCT; chemistry not given here)” to “gTIGIT_8 (guide TGCCGTGGTGGAGGAGAGGTG; chemistry not given here)”, the “% Indel” value falls from 1.4% to 0.3%.

Compared with “gTIGIT_23 (guide TTTGTTTTTAGAAGAAAGCCC; chemistry not given here)”, “gTIGIT_13 (guide AAGGATCGAGTGGCCCCAGGT; chemistry not given here)” is lower in “% Indel” value: 1% for the first, 0.2% for the second.

Going from “gTIGIT_9 (guide TGGCCATTTGTAATGCTGACT; chemistry not given here)” to “gTIGIT_16 (guide CTAGGACCTCCAGGAAGATTC; chemistry not given here)”, the “% Indel” value falls from 0.8% to 0.5%.

Compared with “gTIGIT_4 (guide TATTGTGCCTGTCATCATTCC; chemistry not given here)”, “gTIGIT_1 (guide CCTGAGGCGAGGGGAGCCTGC; chemistry not given here)” is lower in “% Indel” value: 1% for the first, 0.2% for the second.

Same assay, conditions: Target Gene TRAC; tested crRNAs targeting human genes

Compared with “gTRAC089 (guide AACTCAGGGTTGAGAAAACAG; chemistry not given here)”, “gTRAC090 (guide ACTCAGGGTTGAGAAAACAGC; chemistry not given here)” is lower in “% Indel” value: 0.7% for the first, 0.1% for the second.

Same assay, conditions: crRNA targeting TRBC1 + 2; value at TRBC1

“gTRBC1 + 2_1 (guide AGCCATCAGAAGCAGAGATCT; chemistry not given here)” was tested, and the “% Indel (TRBC1)” value was 66.40%.

Same assay, conditions: crRNA targeting TRBC1 + 2; value at TRBC2

“gTRBC1 + 2_1 (guide AGCCATCAGAAGCAGAGATCT; chemistry not given here)” was tested, and the “% Indel (TRBC2)” value was 74.7%.

Same assay, conditions: tested crRNAs targeting human genes; target gene as given (Table 10)

First: gTUBB_3 (guide TTCTCTGTAGGTGGCAAATAT; chemistry not given here)
Second: gTRBC2_19 (guide CACAGGTCAAGAGAAAGGATT; chemistry not given here)
The “% Indel” value of the first is higher: 18.67% for the first, 1.58% for the second.

Going from “gLCK1_3: spacer targeting LCK, SEQ ID NO 1401, ACCCATCAACCCGTAGGGATG (chemistry not given here)” to “gIL7R_3: spacer targeting IL7R, SEQ ID NO 1393, CAGGGGAGATGGATCCTATCT (chemistry not given here)”, the “% Indel” value rises from 16.21% to 87.87%.

Going from “gPLCG1_2: spacer targeting PLCG1, SEQ ID NO 1403, CCTTTCTGCGCTTCGTGGTGT (chemistry not given here)” to “gTRBC2_14 (guide CCAGCAAGGGGTCCTGTCTGC; chemistry not given here)”, the “% Indel” value rises from 5.14% to 6.69%.

Compared with “gU6_5 (guide ATATATCTTGTGGAAAGGACG; chemistry not given here)”, “gTRAC006: spacer targeting TRAC, SEQ ID NO 988, TGAGGGTGAAGGATAGACGCT (chemistry not given here)” is higher in “% Indel” value: 0.39% for the first, 81.8% for the second.

Going from “gTRAC086 (guide CTCAACCCTGAGTTAAAACAC; chemistry not given here)” to “gTRBC2_12: spacer targeting TRBC2, SEQ ID NO 1379, CCGGAGGTGAAGCCACAGTCT (chemistry not given here)”, the “% Indel” value rises from 0.2% to 33.14%.

Compared with “gTRBC2_13 (guide TCAACAGAGTCTTACCAGCAA; chemistry not given here)”, “gTRBC2_11 (guide AGACTGTGGCTTCACCTCCGG; chemistry not given here)” is higher in “% Indel” value: 1.2% for the first, 19.97% for the second.

Compared with “gTRAC087 (guide TCCTGAAGGTAGCTGTTTTCT; chemistry not given here)”, “gU6_1 (guide GTCCTTTCCACAAGATATATA; chemistry not given here)” is higher in “% Indel” value: 0.2% for the first, 68.1% for the second.

Compared with “gTRBC2_18 (guide CCTAGCAAGATCTCATAGAGG; chemistry not given here)”, “gTRBC2_7 (guide CCCTGTTTTCTTTCAGACTGT; chemistry not given here)” is lower in “% Indel” value: 0.37% for the first, 0.09% for the second.

Going from “gDHODH_1 (guide TTGCAGAAGCGGGCCCAGGAT; chemistry not given here)” to “gDHODH_3 (guide TATGCTGAACACCTGATGCCG; chemistry not given here)”, the “% Indel” value rises from 0.6% to 74.94%.

Compared with “gTRBC2_8 (guide CTTTCAGACTGTGGCTTCACC; chemistry not given here)”, “gTUBB_1 (guide AACCATGAGGGAAATCGTGCA; chemistry not given here)” is higher in “% Indel” value: 0.24% for the first, 2.61% for the second.

First: gTRBC2_9 (guide TTTCAGACTGTGGCTTCACCT; chemistry not given here)
Second: gTRBC2_10 (guide CAGACTGTGGCTTCACCTCCG; chemistry not given here)
The “% Indel” value of the first is higher: 0.24% for the first, 0.16% for the second.

First: gTUBB_2 (guide ACCATGAGGGAAATCGTGCAC; chemistry not given here)
Second: gTRAC084 (guide GACTTTTCCCAGCTGACAGAT; chemistry not given here)
The “% Indel” value of the first is higher: 68.4% for the first, 1.6% for the second.

Compared with “gTRBC2_16 (guide TATGCCGTGCTGGTCAGTGCC; chemistry not given here)”, “gCARD11_1: spacer targeting CARD11, SEQ ID NO 1388, TAGTACCGCTCCTGGAAGGTT (chemistry not given here)” is higher in “% Indel” value: 0.2% for the first, 1.37% for the second.

Compared with “gU6_3 (guide TTGGCTTTATATATCTTGTGG; chemistry not given here)”, “gTRAC085 (guide TCAACCCTGAGTTAAAACACA; chemistry not given here)” is lower in “% Indel” value: 2.83% for the first, 0.5% for the second.

First: gU6_2 (guide GATTTCTTGGCTTTATATATC; chemistry not given here)
Second: gTRAC088 (guide GTCCTGAAGGTAGCTGTTTTC; chemistry not given here)
The “% Indel” value of the first is higher: 0.71% for the first, 0.1% for the second.

Going from “gTRBC2_21 (guide GAGCTAGCCTCTGGAATCCTT; chemistry not given here)” to “gTRBC2_15 (guide CTAGGGAAGGCCACCTTGTAT; chemistry not given here)”, the “% Indel” value rises from 11.89% to 21.74%.

Going from “gCD247_12: spacer targeting CD247, SEQ ID NO 89, CTAGCAGAGAAGGAAGAACCC (chemistry not given here)” to “gU6_6 (guide TATATCTTGTGGAAAGGACGA; chemistry not given here)”, the “% Indel” value falls from 70.64% to 0.39%.

Going from “gU6_4 (guide GCTTTATATATCTTGTGGAAA; chemistry not given here)” to “gTRBC2_17 (guide CCATGGCCATCAGCACGAGGG; chemistry not given here)”, the “% Indel” value rises from 0.37% to 1.75%.

Compared with “gU6_7 (guide TGGAAAGGACGAAACACCGTG; chemistry not given here)”, “gDHODH_2 (guide TTGCAGAAGCGGGCCCAGGAT; chemistry not given here)” is higher in “% Indel” value: 0.24% for the first, 0.59% for the second.

From patent US20250179481A1, “COMPOSITIONS AND METHODS FOR TARGETING, EDITING, OR MODIFYING GENES” (Celyntra Therapeutics SA, priority 2021, published 2025)
